Assay results: the supplement of paper PMC11061612

Assays:
[1] = compound: C1CN(CCC1(C(=O)N[C@@H](CCO)C2=CC=C(C=C2)Cl)N)C3=NC=NC4=C3C=CN4 [Capivasertib]; settings: max 10 µM
Method in brief: (§1)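 Cancer cell lines in 1536-well plates (7.5 μl DMEM/F12 or RPMI, 10% FBS) were held 24 hours at 37°C and 5% CO2 and then dosed for 72 hours at a final DMSO of typically 0.2%. Viability was taken from CellTiter-Glo 2.0 luminescence, scaled between blank-well and DMSO-well means. Curves were fitted as two-parameter logistic models with a non-linear mixed effects model, from which the single-agent IC50 was taken.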

[2] = compound: C=CCn1c(=O)c2cnc(Nc3ccc(N4CCN(C)CC4)cc3)nc2n1-c1cccc(C(C)(C)O)n1 [AZD1775]; settings: max 3 µM
Method in brief: as §1

[3] = compound: CC(=O)Nc1cccc(-n2c(=O)n(C3CC3)c(=O)c3c(Nc4ccc(I)cc4F)n(C)c(=O)c(C)c32)c1 [Trametinib]; settings: max 1 µM
Method in brief: as §1

[4] = compound: CC(=O)c1c(C)c2cnc(Nc3ccc(N4CCNCC4)cn3)nc2n(C2CCCC2)c1=O [Palbociclib]; settings: max 10 µM
Method in brief: as §1

[5] = compound: CC(C)n1c(=O)n(C)c2cnc3cc(F)c(-c4ccc(OCCCN5CCCCC5)nc4)cc3c21 [AZD1390]; settings: max 0.3 µM
Method in brief: as §1

[6] = compound: CC1(C)CCC(CN2CCN(c3ccc(C(=O)NS(=O)(=O)c4ccc(NCC5CCOCC5)c([N+](=O)[O-])c4)c(Oc4cnc5[nH]ccc5c4)c3)CC2)=C(c2ccc(Cl)cc2)C1 [Venetoclax]; settings: max 1 µM
Method in brief: as §1

[7] = compound: CC1=C(C(=CC=C1)Cl)NC(=O)C2=CN=C(S2)NC3=CC(=NC(=N3)C)N4CCN(CC4)CCO [Dasatinib]; settings: max 2 µM
Method in brief: as §1

[8] = compound: CC1=CN2[C@@H](C1)C=NC3=CC(=C(C=C3C2=O)OC)OCCCCCOC4=C(C=C5C(=C4)N=C[C@@H]6CC(=CN6C5=O)C)OC [SG3199]; settings: max 0.001 µM
Method in brief: as §1

[9] = compound: CCN(CCO)CCCOc1ccc2c(Nc3cc(CC(=O)Nc4cccc(F)c4)[nH]n3)ncnc2c1 [AZD2811]; settings: max 1 µM
Method in brief: as §1

[10] = compound: CCc1c2c(nc3ccc(O)cc13)-c1cc3c(c(=O)n1C2)COC(=O)[C@]3(O)CC [SN-38]; settings: max 0.3 µM
Method in brief: as §1

[11] = compound: CN(C)CCCOc1ccc(-c2ccc3ncc4c(c3c2)n(C2CCOCC2)c(=O)n4C)cn1 [AZD0156]; settings: max 3 µM
Method in brief: as §1

[12] = compound: CN(CC[C@H](CSC1=CC=CC=C1)NC2=C(C=C(C=C2)S(=O)(=O)NC(=O)C3=CC=C(C=C3)N4CCC(CC4)[C@H](C5=CC=CC=C5C6=CC=C(C=C6)Cl)O)S(=O)(=O)C(F)(F)F)CCO [AZD4320]; settings: max 1 µM
Method in brief: as §1

[13] = compound: COc1cc(Nc2ncc3c(n2)-c2ccc(Cl)cc2C(c2c(F)cccc2OC)=NC3)ccc1C(=O)O [Alisertib]; settings: max 10 µM
Method in brief: as §1

[14] = compound: COc1cc2ncnc(Nc3ccc(F)c(Cl)c3)c2cc1OCCCN1CCOCC1 [Gefitinib]; settings: max 10 µM
Method in brief: as §1

[15] = compound: COc1cccc(OCCCN)c1-c1cc(Nc2cnc(C#N)cn2)n[nH]1 [Prexasertib]; settings: max 1 µM
Method in brief: as §1

[16] = compound: COc1cccc2c1C(=O)c1c(O)c3c(c(O)c1C2=O)C[C@@](O)(C(=O)CO)C[C@@H]3O[C@H]1C[C@H](N)[C@H](O)[C@H](C)O1 [Doxorubicin]; settings: max 1 µM
Method in brief: as §1

[17] = compound: COc1nnc2ccc(N3CCC(c4ccc(OCCN5CCN(C)C(=O)[C@H]5C)cc4)CC3)nn12 [AZD5153]; settings: max 1 µM
Method in brief: as §1

[18] = compound: CS(=O)(=O)CCNCc1ccc(-c2ccc3ncnc(Nc4ccc(OCc5cccc(F)c5)c(Cl)c4)c3c2)o1 [Lapatinib]; settings: max 10 µM
Method in brief: as §1

[19] = compound: C[C@@H](Nc1cc(F)cc(F)c1)c1cc(C(=O)N(C)C)cc2c(=O)cc(N3CCOCC3)oc12 [AZD8186]; settings: max 3 µM
Method in brief: as §1

[20] = compound: C[C@@H](Oc1cc(-c2cnn(C3CCNCC3)c2)cnc1N)c1c(Cl)ccc(F)c1Cl [Crizotinib]; settings: max 10 µM
Method in brief: as §1

[21] = compound: C[C@@H](c1ccc2nccn2c1)n1nnc2ncc(-c3cnn(C)c3)nc21 [Savolitinib]; settings: max 1 µM
Method in brief: as §1

[22] = compound: C[C@@H]1COCCN1C2=NC(=NC(=C2)C3(CC3)[S@](=N)(=O)C)C4=C5C=CNC5=NC=C4 [AZD6738]; settings: max 10 µM
Method in brief: as §1

[23] = compound: Cc1c2c(nn1C)CSCc1cc(n(C)n1)CSc1cc(c3ccccc3c1)OCCCc1c(C(=O)O)n(C)c3c-2c(Cl)ccc13 [AZD5991]; settings: max 1 µM
Method in brief: as §1

[24] = compound: Cc1cc2ncnn2cc1Nc1ncc2c(n1)n(C1CCOCC1)c(=O)n2C [AZD7648]; settings: max 10 µM
Method in brief: as §1

[25] = compound: Cc1nc(-c2cn3c(n2)-c2ccc(-c4cnn(C(C)(C)C(N)=O)c4)cc2OCC3)n(C(C)C)n1 [Taselisib]; settings: max 10 µM
Method in brief: as §1

[26] = compound: Cn1cnc2c(F)c(Nc3ccc(Br)cc3Cl)c(C(=O)NOCCO)cc21 [Selumetinib]; settings: max 10 µM
Method in brief: as §1

[27] = compound: NC1(c2ccc(-c3nc4ccn5c(=O)[nH]nc5c4cc3-c3ccccc3)cc2)CCC1 [MK-2206]; settings: max 10 µM
Method in brief: as §1

[28] = compound: O=C(c1cc(Cc2n[nH]c(=O)c3ccccc23)ccc1F)N1CCN(C(=O)C2CC2)CC1 [Olaparib]; settings: max 10 µM
Method in brief: as §1

Measured: IC50, cell viability 72 h

HCC1954 (Breast Carcinoma)
> 3 µM: [11] | [19]
0.122 µM: [25]
6.26 µM: [18]
> 0.001 µM: [8]
0.133 µM: [23]
1.97 µM: [2]
> 0.3 µM: [5] | [10]
3.24 µM: [1]
> 1 µM: [3] | [6] | [9] | [12] | [16] | [17] | [21]
> 2 µM: [7]
0.0598 µM: [15]
> 10 µM: all other assays above

LN-405 (Glioblastoma)
6.55 µM: [25]
> 0.001 µM: [8]
> 1 µM: [3] | [6] | [9] | [12] | [15] | [16] | [17] | [21] | [23]
> 2 µM: [7]
> 3 µM: [2] | [11] | [19]
> 0.3 µM: [5] | [10]
> 10 µM: all other assays above

NCI-H2591 (Mesothelioma)
> 0.3 µM: [5]
0.0717 µM: [10]
> 3 µM: [2] | [11] | [19]
> 1 µM: [3] | [6] | [9] | [12] | [15] | [16] | [17] | [21] | [23]
> 2 µM: [7]
> 0.001 µM: [8]
> 10 µM: all other assays above
